Experimental data: patent US7256187B2, “Rifamycin C-11 oxime derivatives effective against drug-resistant microbes” (Cumbre Pharmaceuticals Inc., priority 2004, dated 2007)
Values after ≈ are worked out from the molar mass of the structure shown.

Legend:
Format in all cases: cell-based
[1] = test system: Staphylococcus aureus ATCC29213; assay: MIC, microbroth dilution; conditions: Staphylococcus aureus ATCC29213, rifS; read-out: Antimicrobial activity (MIC)
[2] = test system: Staphylococcus aureus ATCC29213 rpoB^D417Y; assay: microbe, parasite or virus in culture; conditions: Staphylococcus aureus ATCC29213 rpoB^D417Y, rifR; read-out: Antimicrobial activity (MIC)
Procedure: (§1) Representative compounds were assayed for antimicrobial activity as follows: Minimum Inhibitory Concentrations (“MICs”) were determined by the microbroth dilution method as per NCCLS guidelines (National Committee for Clinical Laboratory Standards. 2000. Methods for dilution antimicrobial susceptibility tests for bacteria that grow aerobically, 5th ed. M7-A5. National Committee for Clinical Laboratory Standards, Wayne, Pa.), except that all growth incubations were conducted at 37° C. Bacterial cultures were tested in the following bacteriological media: S. aureus, S. epidermidis, and E. coli in Cation-Adjusted Mueller-Hinton Broth, S. pneumoniae in THY Broth supplemented with 1 mg/mL catalase under 5% CO2 atmosphere, S. pyogenes in THY Broth, E. faecalis in BHI Broth, H. influenzae in BHI Broth supplemented with 0.75 μL of 1 mg/mL NAD and 150 μL of 1 mg/ml hematin per 5 mL, and M. smegmatis in Middlebrook Broth plus ADC Enrichment.
(§2) S. aureus ATCC 29213 RpoB^H418Y is a rifampin-resistant strain with a mutation in the RpoB gene of RNA polymerase. […] S. aureus EN1252a gyrA^S84L grlA^S80F is a quinolone-resistant strain due to double gene mutations of DNA gyrase and topoisomerase IV.

[3] = test system: Staphylococcus aureus ATCC29213 rpoB^H418Y; assay: microbe, parasite or virus in culture; conditions: Staphylococcus aureus ATCC29213 rpoB^H418Y, rifR; read-out: Antimicrobial activity (MIC)
Procedure: as §1, §2

[4] = test system: Staphylococcus aureus EN1252a gyrA^S84L grlA^S80F; assay: microbe, parasite or virus in culture; conditions: Staphylococcus aureus EN1252a gyrA^S84L grlA^S80F, cipR; read-out: Antimicrobial activity (MIC)
Procedure: as §1, §2

[5] = test system: Staphylococcus epidermidis ATCC12228; assay: MIC, microbroth dilution; conditions: Staphylococcus epidermidis ATCC12228, rifS; read-out: Antimicrobial activity (MIC)
[6] = test system: Streptococcus pneumoniae ATCC6303; assay: MIC, microbroth dilution; conditions: Streptococcus pneumoniae ATCC6303, rifS; read-out: Antimicrobial activity (MIC)
[7] = test system: Streptococcus pyogenes ATCC19615; assay: MIC, microbroth dilution; conditions: Streptococcus pyogenes ATCC19615, rifS; read-out: Antimicrobial activity (MIC)
[8] = test system: Enterococcus faecalis ATCC29212; assay: MIC, microbroth dilution; conditions: Enterococcus faecalis ATCC29212, rifS; read-out: Antimicrobial activity (MIC)
[9] = test system: Haemophilus influenzae ATCC10211; assay: MIC, microbroth dilution; conditions: Haemophilus influenzae ATCC10211, rifS; read-out: Antimicrobial activity (MIC)
[10] = test system: Escherichia coli ATCC25922; assay: MIC, microbroth dilution; conditions: Escherichia coli ATCC25922, rifS; read-out: Antimicrobial activity (MIC)
[11] = test system: Mycobacterium smegmatis ATCC700084; assay: MIC, microbroth dilution; conditions: Mycolicibacterium smegmatis; Mycobacterium smegmatis ATCC700084, rifS; read-out: Antimicrobial activity (MIC)

Row | SMILES | MIC [1] [µg/mL] | MIC [2] [µg/mL] | MIC [3] [µg/mL] | MIC [4] [µg/mL] | MIC [5] [µg/mL] | MIC [6] [µg/mL] | MIC [7] [µg/mL] | MIC [8] [µg/mL] | MIC [9] [µg/mL] | MIC [10] [µg/mL] | MIC [11] [µg/mL]
1 | CO[C@H]1/C=C/O[C@@]2(C)Oc3c(C)c(O)c4c(c3/C2=N/OCCN2CCN(c3cccc(C(F)(F)F)c3)CC2)C(=O)C=C(NC(=O)/C(C)=C\C=C\[C@H](C)[C@H](O)[C@@H](C)[C@@H](O)[C@@H](C)[C@H](OC(C)=O)[C@@H]1C)C4=O [Example 18, 11-Deoxy-11-{2-[4-(3-trifluoromethyl-phenyl)-piperazin-1-yl]ethoxyimino}rifamycin S] | 0.004 to 0.5 (≈ 0.00414 to 0.517 µM) | 0.25 to 32 (≈ 0.259 to 33.1 µM) | 0.125 to 16 (≈ 0.129 to 16.5 µM) | 0.004 to 0.5 (≈ 0.00414 to 0.517 µM) | 0.0005 to 0.063 (≈ 0.000517 to 0.0651 µM) | 0.0002 to 0.125 (≈ 0.000207 to 0.129 µM) | 0.0005 to 0.063 (≈ 0.000517 to 0.0651 µM) | 2 to 32 (≈ 2.07 to 33.1 µM) | 0.03 to 2 (≈ 0.031 to 2.07 µM) | 0.125 to 8 (≈ 0.129 to 8.27 µM) | 0.5 to 64 (≈ 0.517 to 66.2 µM)
2 | CO[C@H]1/C=C/O[C@@]2(C)Oc3c(C)c(O)c4c(c3/C2=N/OCCN2CCN(S(=O)(=O)c3cccc5ccncc35)CC2)C(=O)C=C(NC(=O)/C(C)=C\C=C\[C@H](C)[C@H](O)[C@@H](C)[C@@H](O)[C@@H](C)[C@H](OC(C)=O)[C@@H]1C)C4=O [Example 19, 11-Deoxy-11-{2-[4-(isoquinoline-8-sulfonyl)-piperazin-1-yl]-ethoxyimino}rifamycin S] | 0.004 to 0.5 (≈ 0.00394 to 0.493 µM) | 0.25 to 32 (≈ 0.247 to 31.6 µM) | 0.125 to 16 (≈ 0.123 to 15.8 µM) | 0.004 to 0.5 (≈ 0.00394 to 0.493 µM) | 0.0005 to 0.063 (≈ 0.000493 to 0.0621 µM) | 0.0002 to 0.125 (≈ 0.000197 to 0.123 µM) | 0.0005 to 0.063 (≈ 0.000493 to 0.0621 µM) | 2 to 32 (≈ 1.97 to 31.6 µM) | 0.03 to 2 (≈ 0.0296 to 1.97 µM) | 0.125 to 8 (≈ 0.123 to 7.89 µM) | 0.5 to 64 (≈ 0.493 to 63.1 µM)
3 | CO[C@H]1/C=C/O[C@@]2(C)Oc3c(C)c(O)c4c(c3/C2=N/OCCN(CCO)CCO)C(=O)C=C(NC(=O)/C(C)=C\C=C\[C@H](C)[C@H](O)[C@@H](C)[C@@H](O)[C@@H](C)[C@H](OC(C)=O)[C@@H]1C)C4=O [Example 20, 11-Deoxy-11-{2-[bis-(2-hydroxy-ethyl)-amino]ethoxyimino}rifamycin S] | 0.004 to 0.5 (≈ 0.00475 to 0.594 µM) | 0.25 to 32 (≈ 0.297 to 38 µM) | 0.125 to 16 (≈ 0.148 to 19 µM) | 0.004 to 0.5 (≈ 0.00475 to 0.594 µM) | 0.0005 to 0.063 (≈ 0.000594 to 0.0748 µM) | 0.0002 to 0.125 (≈ 0.000238 to 0.148 µM) | 0.0005 to 0.063 (≈ 0.000594 to 0.0748 µM) | 2 to 32 (≈ 2.38 to 38 µM) | 0.03 to 2 (≈ 0.0356 to 2.38 µM) | 0.125 to 8 (≈ 0.148 to 9.5 µM) | 0.5 to 64 (≈ 0.594 to 76 µM)
4 | CO[C@H]1/C=C/O[C@@]2(C)Oc3c(C)c(O)c4c(c3/C2=N/OCCN2CC(C)NC(C)C2)C(=O)C=C(NC(=O)/C(C)=C\C=C\[C@H](C)[C@H](O)[C@@H](C)[C@@H](O)[C@@H](C)[C@H](OC(C)=O)[C@@H]1C)C4=O (stereo partly drawn) [Example 21, 11-Deoxy-11-[2-(3,5-dimethyl-piperazin-1-yl)ethoxyimino]rifamycin S] | 0.004 to 0.5 (≈ 0.0047 to 0.588 µM) | 0.25 to 32 (≈ 0.294 to 37.6 µM) | 0.125 to 16 (≈ 0.147 to 18.8 µM) | 0.004 to 0.5 (≈ 0.0047 to 0.588 µM) | 0.0005 to 0.063 (≈ 0.000588 to 0.074 µM) | 0.0002 to 0.125 (≈ 0.000235 to 0.147 µM) | 0.0005 to 0.063 (≈ 0.000588 to 0.074 µM) | 2 to 32 (≈ 2.35 to 37.6 µM) | 0.03 to 2 (≈ 0.0353 to 2.35 µM) | 0.125 to 8 (≈ 0.147 to 9.4 µM) | 0.5 to 64 (≈ 0.588 to 75.2 µM)
5 | CO[C@H]1/C=C/O[C@@]2(C)Oc3c(C)c(O)c4c(c3/C2=N/OCCN2CCN(C)CC2)C(=O)C=C(NC(=O)/C(C)=C\C=C\[C@H](C)[C@H](O)[C@@H](C)[C@@H](O)[C@@H](C)[C@H](OC(C)=O)[C@@H]1C)C4=O [Example 22, 11-Deoxy-11-[2-(4-methylpiperazin-1-yl)ethoxyimino]rifamycin S] | 0.004 to 0.5 (≈ 0.00478 to 0.597 µM) | 0.25 to 32 (≈ 0.299 to 38.2 µM) | 0.125 to 16 (≈ 0.149 to 19.1 µM) | 0.004 to 0.5 (≈ 0.00478 to 0.597 µM) | 0.0005 to 0.063 (≈ 0.000597 to 0.0753 µM) | 0.0002 to 0.125 (≈ 0.000239 to 0.149 µM) | 0.0005 to 0.063 (≈ 0.000597 to 0.0753 µM) | 2 to 32 (≈ 2.39 to 38.2 µM) | 0.03 to 2 (≈ 0.0358 to 2.39 µM) | 0.125 to 8 (≈ 0.149 to 9.56 µM) | 0.5 to 64 (≈ 0.597 to 76.5 µM)
6 | CO[C@H]1/C=C/O[C@@]2(C)Oc3c(C)c(O)c4c(c3/C2=N/OCCN2CCC(O)CC2)C(=O)C=C(NC(=O)/C(C)=C\C=C\[C@H](C)[C@H](O)[C@@H](C)[C@@H](O)[C@@H](C)[C@H](OC(C)=O)[C@@H]1C)C4=O [Example 23, 11-Deoxy-11-[2-(4-hydroxypiperadin-1-yl)ethoxyimino]rifamycin S] | 0.004 to 0.5 (≈ 0.00477 to 0.597 µM) | 0.25 to 32 (≈ 0.298 to 38.2 µM) | 0.125 to 16 (≈ 0.149 to 19.1 µM) | 0.004 to 0.5 (≈ 0.00477 to 0.597 µM) | 0.0005 to 0.063 (≈ 0.000597 to 0.0752 µM) | 0.0002 to 0.125 (≈ 0.000239 to 0.149 µM) | 0.0005 to 0.063 (≈ 0.000597 to 0.0752 µM) | 2 to 32 (≈ 2.39 to 38.2 µM) | 0.03 to 2 (≈ 0.0358 to 2.39 µM) | 0.125 to 8 (≈ 0.149 to 9.55 µM) | 0.5 to 64 (≈ 0.597 to 76.4 µM)
